Measurements published in patent US20220251126A1, “ANTICANCER AGENTS” (Yissum Research Development Company of the Hebrew …, priority 2019, published 2022).
Where two headings read alike, the source gives them in different places.

How the values were obtained:
physchem = format: physicochemical
Protocol: ctc-[Pt(NH3)2(Tax-Carb)(OH)Cl2] (3 mg, 0.0025 mmol) was dissolve in 750 μL of DMSO-d6 and mixed with ascorbic acid (2.2 mg, 0.0125 mmol). The ^1H NMR spectra were recorded every 6 min at 37° C.
We incubated ctc-[Pt(NH3)2(Tax-Carb)(OH)Cl2] with 5 eq of ascorbate and the reduction was followed by ^1H NMR. The NH proton in ctc-[Pt(NH3)2(Tax-Carb)(OH)Cl2] resonates at 9.2 ppm and in free taxol at ˜8.85 ppm. […] Similar results were obtained for the reduction of ctc-[Pt(NH3)2(EM-Carb)(OAc)Cl2] (FIG. 5A).

A375 = test: Cytotoxicity, A375 cells; format: cell-based, human
A2780 = test: MTT cytotoxicity, ovarian cancer cells A2780; format: cell-based, human
Protocol: (§1) Cell cultures. The human ovarian A2780 and A2780cisR cancer were obtained from the American Type Culture Collection (ATCC, Rockville, Md.). Cell lines were maintained in the logarithmic phase at 37° C. under a 5% carbon dioxide atmosphere using RPMI 1640 medium containing 10% fetal calf serum, antibiotics (50 units per mL penicillin and 50 μg mL^−1 streptomycin) and 2 mM L-glutamine. MTT assay. The growth inhibitory effect towards human cell lines was evaluated by means of MTT (tetrazolium salt reduction) assay. Briefly, 3-8×10^3 cells per well, dependent upon the growth characteristics of the cell line, were seeded in 96-well microplates in growth medium (100 μL) and then incubated at 37° C. under a 5% carbon dioxide atmosphere. After 24 h, the medium was removed and replaced with a fresh one containing the compound to be studied at an appropriate concentration. Triplicate cultures were established for each treatment. After 72 h, each well was treated with 10 μL of a 5 mg mL^−1 MTT (3-(4,5-dimethylthiazol-2-yl)-2,5-diphenyltetrazoliumbromide) solution, and after additional 5 h, 100 μL of a sodium dodecyl sulfate (SDS) solution in 0.01 M HCl were added. Following overnight incubation, the inhibition of cell growth induced by the tested complexes was detected by measuring the absorbance of each well at 570 nm using a Bio-Rad 680 microplate reader (Bio-Rad, Hercules, CA).The mean absorbance for each drug dose was expressed as a percentage of the control untreated well absorbance and plotted vs. drug concentration.

PC9 = test: Cytotoxicity, PC9 cells; format: cell-based, human
A2780cisR = test: MTT cytotoxicity, cisplatin resistant line A2780cisR; format: cell-based, human
Protocol: as §1

[1] = test system: Lewis lung carcinoma (LLC); test: In vivo anticancer activity toward Lewis lung carcinoma (LLC) solid tumor; set-up: species or system C57BL mice; conditions: for reduction of tumor growth / tumor mass compared to the control group: LLC model, day 15, rounded values of the text; for In vivo efficacy LLC Inhibition of tumor growth (%) / In vivo efficacy LLC tumor weight: Table 1, daily dose 20 (Gem-Carb complex, oral), 3 (cisplatin), 60 (gemcitabine); for In vivo efficacy LLC Inhibition of tumor growth (%): day 15, vs control, 60 + 3 (combination) mg kg^-1; for In vivo efficacy LLC tumor weight / Average tumor weight (mean ± SD, g) / Inhibition of tumor growth (%): day 15; for In vivo efficacy LLC tumor weight: 60 + 3 (combination) mg kg^-1, days 7-14; for Average tumor weight (mean ± SD, g) / Inhibition of tumor growth (%): Table 2, daily oral 20 mg kg^-1 Gem-Carb complex, daily i.p. 3 mg kg^-1 cisplatin, 60 mg kg^-1 Gem or combination, days 7-14
Protocol: In vivo anticancer activity toward Lewis lung carcinoma (LLC). All studies involving animal testing were carried out in accordance with ethical guidelines for animal research acknowledging the European Directive 2010/63/UE as to the animal welfare and protection and the related codes of practice. The mice were purchased from Charles River, housed in steel cages under controlled environmental conditions (constant temperature, humidity, and 12 h dark/light cycle), and alimented with commercial standard feed and tap water ad libitum. The LLC cell line was purchased from ECACC, United Kingdom. The LLC cell line was maintained in DMEM (Euroclone) supplemented with 10% heat inactivated fetal bovine serum (Euroclone), 10 mM L-glutamine, 100 U mL-1 penicillin, and 100 μg mL^−1 streptomycin in a 5% CO2 air incubator at 37° C. The LLC was implanted intramuscularly (i.m.) as a 2×10^6 cell inoculum into the right hind leg of 8 week old male and female C57BL mice (24±3 g body weight). […] Control mice received the vehicle (0.5% DMSO (v/v) and 99.5% of a saline solution (v/v)), whereas treated groups received daily doses of ctc-[Pt(NH3)2(Gem-Carb)(PhB)Cl2] […] At day 15, animals were sacrificed, the legs were amputated at the proximal end of the femur, and the inhibition of tumor growth was determined from the difference in the weights of the tumor-bearing leg and the healthy leg of the animals, expressed as a percentage referenced to the control animals Body weight was measured at day 0 and from day 7 onwards every 2 days and was taken as a parameter for systemic toxicity. All presented values are the means ±SD of no less than three measurements.
Moreover, it provides no information on the toxicity of the compounds. […] Seven days after tumor inoculation the tumor-bearing mice were randomized into vehicle control and treatment groups. Control mice received the vehicle (0.5% DMSO (v/v) and 99.5% of a saline solution (v/v)), whereas treated groups received daily doses of ctc-[Pt(NH3)2(Gem-Carb)(PhB)Cl2] […] As an estimation of the adverse side effects, changes in the body weights were monitored every two days.

[2] = set-up: species or system C57BL mice; conditions: mouse, in vivo
Protocol: In vivo anticancer activity toward Lewis lung carcinoma (LLC). All studies involving animal testing were carried out in accordance with ethical guidelines for animal research acknowledging the European Directive 2010/63/UE as to the animal welfare and protection and the related codes of practice. The mice were purchased from Charles River, housed in steel cages under controlled environmental conditions (constant temperature, humidity, and 12 h dark/light cycle), and alimented with commercial standard feed and tap water ad libitum. The LLC cell line was purchased from ECACC, United Kingdom. […] At day 15, animals were sacrificed, the legs were amputated at the proximal end of the femur, and the inhibition of tumor growth was determined from the difference in the weights of the tumor-bearing leg and the healthy leg of the animals, expressed as a percentage referenced to the control animals Body weight was measured at day 0 and from day 7 onwards every 2 days and was taken as a parameter for systemic toxicity. […]
Moreover, it provides no information on the toxicity of the compounds. […] As an estimation of the adverse side effects, changes in the body weights were monitored every two days.

[3] = Homo sapiens, A2780, Table 1, 72 h incubation, MTT, read-out: In vitro IC50 (μM) Cancer cell lines A2780
[4] = Homo sapiens, A2780cisR, Table 1, 72 h incubation, MTT, read-out: In vitro IC50 (μM) Cancer cell lines A2780cisR

SMILES | IC50 (A2780; [3]) [nM] | IC50 (A2780cisR; [4]) [nM] | reduction of tumor growth / tumor mass compared to the control group [1] | In vivo efficacy LLC Inhibition of tumor growth (%) [1] [%] | In vivo efficacy LLC tumor weight [1] [g] | Average tumor weight (mean ± SD, g) [1] [g] | Inhibition of tumor growth (%) [1] [%] | also measured
CC(=O)OC1C(=O)C2(C)C(O)CC3OCC3(OC(C)=O)C2C(OC(=O)c2ccccc2)C2(O)CC(OC(=O)C(OC(=O)[O][Pt]([NH2])([NH2])([OH])([Cl])[Cl])C(NC(=O)c3ccccc3)c3ccccc3)C(C)=C1C2(C)C (stereo not shown) [ctc-[Pt(NH3)2(Tax-Carb)(OH)Cl2]] | – | – | – | – | – | – | – | half-life at 3.3 mM (physchem): 25 min
COc1ccc(/C=C\c2cc(OC)c(OC)c(OC)c2)cc1O [CA4, combretastatin-A4] | – | – | – | – | – | – | – | IC50 (A375; Table 3, unit nM, read-out: Cytotoxicity data A375 mean): 1.63 nM; IC50 (A2780; Table 3, unit nM, read-out: Cytotoxicity data A2780 mean): 2.12 nM; IC50 (PC9; Table 3, unit nM, read-out: Cytotoxicity data PC9 mean): 4.87 nM; IC50 (A2780cisR; Table 3, unit nM, read-out: Cytotoxicity data A2780 res mean): 2.63 nM
CC(=O)O[C@H]1C(=O)[C@@]2(C)[C@H]([C@H](OC(=O)c3ccccc3)[C@]3(O)C[C@H](OC(=O)[C@H](O)[C@@H](NC(=O)c4ccccc4)c4ccccc4)C(C)=C1C3(C)C)[C@]1(OC(C)=O)CO[C@@H]1C[C@@H]2O [Taxol, Paclitaxel] | 2.2 ± 1 | 3 ± 0.06 | – | – | – | – | – | IC50 (A375; Homo sapiens, A-375, Table 4, cells in nM, read-out: Cytotoxicity data A375): 10 nM; IC50 (A2780; Homo sapiens, A2780, Table 4, cells in nM, read-out: Cytotoxicity data A2780): 1.05 nM; IC50 (PC9; Homo sapiens, PC-9, Table 4, cells in nM, read-out: Cytotoxicity data PC9): 4.5 nM; IC50 (A2780cisR; Homo sapiens, A2780cisR, Table 4, cells in nM, read-out: Cytotoxicity data A2890cisR): 3.1 nM
N.N.[Cl][Pt][Cl] [Cisplatin, cisplatin] | – | – | ~90% | 90.3 | 0.040 ± 0.01 | 0.040 ± 0.01 | 90.3 | –
N.N.[Cl-].[Cl-].[OH-].[OH-].[Pt+4] [Oxoplatin, oxoplatin] | – | – | – | – | – | – | – | IC50 (A375; Table 3, unit μM, read-out: Cytotoxicity data A375 mean): 2210 nM; IC50 (A2780; Table 3, unit μM, read-out: Cytotoxicity data A2780 mean): 450 nM; IC50 (PC9; Table 3, unit μM, read-out: Cytotoxicity data PC9 mean): 3990 nM; IC50 (A2780cisR; Table 3, unit μM, read-out: Cytotoxicity data A2780 res mean): 1170 nM
Nc1ccn([C@@H]2O[C@H](CO)[C@@H](O)C2(F)F)c(=O)n1 [Gemcitabine, gemcitabine] | 2 ± 1 | 5 ± 1 | about 80% | 80.5 | 0.08 ± 0.2 | 0.080 ± 0.2 | 80.5 | body weight loss [2]: ~20%
